Experimental data reported in PMC9579011, “Coprinopsis cinerea dioxygenase is an oxygenase forming 10(S)-hydroperoxide of linoleic acid, essential for mushroom alcohol, 1-octen-3-ol, synthesis” (The Journal of Biological Chemistry, 2022).

Assays:
CcDOX2 = biological target: T1, CcDOX2 (Coprinopsis cinerea, UniProt A8NN01); assay: LC-MS/MS of products after triphenylphosphine reduction; format: biochemical; conditions: immunopurified EGFP fusion; 8-hydroperoxide product (tentative)
T1 construct: gene CC1G_09914; full length, 1118 aa, C-terminal EGFP fusion, expressed in BmN4 (Bombyx mori) cells, immunopurified with anti-GFP antibody
T1 sequence (A8NN01 1-1118): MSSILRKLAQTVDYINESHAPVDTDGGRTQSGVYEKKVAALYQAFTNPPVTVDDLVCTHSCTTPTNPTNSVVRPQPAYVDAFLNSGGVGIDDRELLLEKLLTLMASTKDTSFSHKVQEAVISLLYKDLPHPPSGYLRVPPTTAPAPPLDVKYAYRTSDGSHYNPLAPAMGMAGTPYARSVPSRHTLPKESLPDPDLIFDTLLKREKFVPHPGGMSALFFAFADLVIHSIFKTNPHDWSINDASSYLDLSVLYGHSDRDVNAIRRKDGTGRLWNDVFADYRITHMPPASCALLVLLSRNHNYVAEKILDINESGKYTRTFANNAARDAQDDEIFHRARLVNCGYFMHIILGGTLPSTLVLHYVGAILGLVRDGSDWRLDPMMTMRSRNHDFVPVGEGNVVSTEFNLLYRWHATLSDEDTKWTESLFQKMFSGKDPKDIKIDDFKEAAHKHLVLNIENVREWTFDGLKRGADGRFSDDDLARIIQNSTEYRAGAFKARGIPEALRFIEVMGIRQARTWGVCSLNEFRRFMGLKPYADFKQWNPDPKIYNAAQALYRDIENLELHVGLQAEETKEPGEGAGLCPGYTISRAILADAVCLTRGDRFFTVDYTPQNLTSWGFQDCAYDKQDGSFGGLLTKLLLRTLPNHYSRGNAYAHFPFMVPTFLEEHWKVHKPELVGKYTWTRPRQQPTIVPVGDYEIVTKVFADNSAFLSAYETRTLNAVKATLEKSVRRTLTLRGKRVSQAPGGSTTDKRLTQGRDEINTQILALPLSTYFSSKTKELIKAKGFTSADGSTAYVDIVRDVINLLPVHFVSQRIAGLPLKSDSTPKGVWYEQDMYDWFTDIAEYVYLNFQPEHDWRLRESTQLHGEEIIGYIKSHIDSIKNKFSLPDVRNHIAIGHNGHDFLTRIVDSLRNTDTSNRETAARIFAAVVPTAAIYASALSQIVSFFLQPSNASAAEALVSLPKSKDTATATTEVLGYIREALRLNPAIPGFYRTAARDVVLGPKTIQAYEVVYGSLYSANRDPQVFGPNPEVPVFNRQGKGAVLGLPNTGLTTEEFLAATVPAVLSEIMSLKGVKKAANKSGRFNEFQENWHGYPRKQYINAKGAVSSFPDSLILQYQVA

CcDOX1 = biological target: T2, CcDOX1 (Coprinopsis cinerea, UniProt A8N8W9); assay: LC-MS/MS product peak area, Hill fit of [S]-v plot; format: biochemical; conditions: Hill coefficient n = 1.9 ± 0.27; 10-500 μM substrate, 30 min on ice; bead-bound immunopurified EGFP fusion; lysis buffer pH 7.4
T2 construct: gene CC1G_00844; full length, 1066 aa, C-terminal EGFP fusion, expressed in BmN4 (Bombyx mori) cells, immunopurified on anti-GFP beads
T2 sequence (A8N8W9 1-1066): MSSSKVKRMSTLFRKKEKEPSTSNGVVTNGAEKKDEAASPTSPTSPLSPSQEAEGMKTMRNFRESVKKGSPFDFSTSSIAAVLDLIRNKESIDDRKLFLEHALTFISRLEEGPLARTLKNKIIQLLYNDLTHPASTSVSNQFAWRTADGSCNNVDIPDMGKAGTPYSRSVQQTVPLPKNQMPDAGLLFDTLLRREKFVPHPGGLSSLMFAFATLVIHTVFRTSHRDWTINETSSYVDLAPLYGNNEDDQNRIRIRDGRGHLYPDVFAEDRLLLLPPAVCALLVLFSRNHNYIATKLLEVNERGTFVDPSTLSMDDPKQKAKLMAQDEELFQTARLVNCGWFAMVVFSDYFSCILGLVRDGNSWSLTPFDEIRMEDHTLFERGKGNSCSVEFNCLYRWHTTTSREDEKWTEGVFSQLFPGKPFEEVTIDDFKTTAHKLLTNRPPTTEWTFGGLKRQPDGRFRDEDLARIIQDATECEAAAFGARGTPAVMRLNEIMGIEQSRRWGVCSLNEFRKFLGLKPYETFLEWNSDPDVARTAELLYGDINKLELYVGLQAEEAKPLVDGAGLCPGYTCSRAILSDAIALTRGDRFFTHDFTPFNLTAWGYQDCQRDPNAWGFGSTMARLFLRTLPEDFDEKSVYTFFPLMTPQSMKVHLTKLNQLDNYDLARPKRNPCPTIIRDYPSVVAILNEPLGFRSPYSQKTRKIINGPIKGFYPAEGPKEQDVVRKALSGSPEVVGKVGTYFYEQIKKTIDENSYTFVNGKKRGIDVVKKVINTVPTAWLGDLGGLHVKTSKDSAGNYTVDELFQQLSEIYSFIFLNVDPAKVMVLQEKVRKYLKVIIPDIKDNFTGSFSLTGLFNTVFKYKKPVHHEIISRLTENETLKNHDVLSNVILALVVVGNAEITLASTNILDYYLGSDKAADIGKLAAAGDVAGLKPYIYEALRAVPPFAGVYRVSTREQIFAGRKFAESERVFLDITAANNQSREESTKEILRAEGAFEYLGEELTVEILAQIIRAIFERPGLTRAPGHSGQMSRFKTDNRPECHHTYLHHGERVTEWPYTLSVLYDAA

## CCCCC/C=C\C/C=C\CCCCCCCC(=O)O [linoleic acid]
CcDOX2
  LC-MS/MS of products after triphenylphosphine reduction: Linoleic acid was added to the purified recombinant CcDOX1 and CcDOX2
CcDOX1
  KA: 78 ± 9.74 µM
